Our source for the MIC values is US20190247353A1, “ACNE STRAIN-SELECTIVE ANTIBACTERIAL AGENT” (MOMOTANI JUNTENKAN CO., LTD., priority 2016, published 2019).

The assay has as its system dominant strain in acne patients (RT4 strain and/or RT5 strain). Briefly: MIC against dominant strain in acne patients. Particulars: Cutibacterium acnes, in the pH range tested in the Examples. Type of assay: cell-based, Propionibacterium acnes. The protocol:
The antibacterial activity of a test substance was determined based on the minimum inhibitory concentration (MIC). An MIC was measured according to the broth microdilution method which is the standard method of Japanese Society of Chemotherapy.
Each of strain suspensions (5.0×10^4 cfu/mL) was aliquoted in a 96-well round bottom microplate, each of the test substance (fatty acid concentration 10,000 μg/mL) was added at a 1/10 volume to the aliquot and mixed to prepare measurement samples (fatty acid concentration: 1,000 μg/mL). Measurement samples in 2-fold dilution series were prepared using the strain suspension (fatty acid concentration from 0.48 to 1,000 μg/mL). Using a sample containing only the solvent (DMSO) as a control, it was confirmed that the influence of the solvent on the growth of each strain could be neglected.
The measurement samples were incubated under an anaerobic condition at 37° C. for 2 days. The presence or absence of a precipitation of test microbial cells after the incubation was examined and the minimum concentration at which the precipitation of microbial cells […] was regarded as the MIC (μg/mL) of the test substance against the acne bacterium strain.

Where only a bound is given, the exact number is not on record here.

The MIC is the smallest concentration in the dilution series that meets the test's criterion for growth inhibition. As to `CCCCCCCCCCCCCCCCC(=O)O` [Heptadecanoic acid (C17:0), Heptadecanoic acid], the MIC is not above 62.5 mg/L.
